Measured values reported in patent US20060025589A1, “2-Thiohydantoine derivative compounds and use thereof for the treatment of diabetes” (priority 2002, published 2006).

Each compound was assayed on male C57BL/KsJ-db/db mice (assay: in vivo reduction of serum glucose and triglyceride levels in diabetic db/db mice). Details: gavage, suspended in 3% gum arabic, twice daily for 10 days plus morning of day 11, doses below 200 mg/kg, generally 10 mg/kg, blood taken 4 h after last administration.
Protocol: The compounds of formula (I) according to the invention were subjected to pharmacological tests in order to evaluate their potential to reduce the blood glycemia level.
The in vivo studies were carried out on male C57BL/KsJ-db/db mice originating from CERJ (Route des Chênes Secs—BP 5—53940 Le Genest St Isle—France).
The animals are accommodated in cages fitted with a filter lid and have free access to an irradiated standard food and to filtered drinking water. All the equipment used (cages, feeding bottles, pipettes and shavings) is sterilized by autoclaving, irradiation or immersion in a disinfectant. The temperature of the room is maintained at 23±2° C. The light-dark cycle is 12 h.
During the acclimatization period, each animal is tagged with an electronic chip, which is implanted under anesthesia effected by the inhalation of a CO2/O2 mixture.
Groups of 8 to 10 mice are formed and the treatments start when the animals are 9 to 11 weeks old. The products are suspended in gum arabic at a concentration of 3% and administered to the animals by means of a gavage cannula for 10 days at a rate of two administrations per day, as well as on the morning of day 11. The products are tested at doses below 200 mg/kg and generally of 10 mg/kg. The animals in the control group receive the dosage vehicle only.
A blood sample is taken before treatment and then four hours after the last administration of the product. The animals are anesthetized by the inhalation of a CO2/O2 mixture and the blood is taken from the retro-orbital sinus, collected in a dry tube and kept cold. The serum is separated off by centrifugation at 2800 g (15 minutes, 4° C.) during the hour following sampling. The samples are kept at −20° C. until they are analyzed.
The serum glucose and triglyceride levels are determined on a Konélab 30 analyzer by means of Konélab kits. The animals whose glycemia before treatment was below 3 g/l are systematically excluded from the study.
For each group, the mean glucose and triglyceride levels after treatment are calculated and the results are expressed as the percentage variation of these means relative to the control group after verification of the homogeneity of the means before treatment.

| Structure (SMILES) | Gly (decrease in the glycemia level; percentage variation of mean serum glucose relative to the control group) [%] | TG (decrease in the triglyceride level; percentage variation of mean serum triglycerides relative to the control group) [%] |
| --- | --- | --- |
| COc1ccc(N2C(=O)C(C)(C)N(c3ccc(Oc4ccccc4)cc3)C2=S)cc1 [Example 30, 5,5-Dimethyl-3-(4-methoxyphenyl)-1-(4-phenoxyphenyl)-2-thioxoimidazolidin-4-one] | −54 | −53 |
| C=CCN1CC(=O)N(c2ccc(Cc3ccccc3)cc2)C1=S [Example 190, 3-[4-(Phenylmethyl)phenyl]-1-(2-propenyl)-2-thioxoimidazolidin-4-one] | −58 | −53 |
| COc1ccc(N2C(=O)CN(c3ccc(Cc4ccccc4)cc3)C2=S)cc1 [Example 195, 3-(4-Methoxyphenyl)-1-[4-(phenylmethyl)phenyl]-2-thioxoimidazolidin-4-one] | −53 | −46 |
| COc1ccc(N2C(=O)C(C)N(c3ccc(Cc4ccccc4)cc3)C2=S)cc1 (centres unmarked) [Example 200, 3-(4-Methoxyphenyl)-5-methyl-1-[4-(phenylmethyl)phenyl]-2-thioxoimidazolidin-4-one] | −63 | −58 |
| COc1ccc(N2C(=O)C(C)N(c3ccc(OCc4ccccc4)cc3)C2=S)cc1 (centres unmarked) [Example 139] | −36 | −32 |
| CC1C(=O)N(c2cccc(F)c2)C(=S)N1c1ccc(Oc2ccccc2)cc1 (centres unmarked) [Example 20, 3-(3-Fluorophenyl)-5-methyl-1-(4-phenoxyphenyl)-2-thioxoimidazolidin-4-one] | −47 | −47 |
| CC1C(=O)N(c2ccc(Cc3ccccc3)cc2)C(=S)N1c1ccccc1 (centres unmarked) [Example 185, 5-Methyl-1-phenyl-3-[4-(phenylmethyl)phenyl]-2-thioxoimidazolidin-4-one] | −57 | −39 |
